Measurements as given in US9403805B2, “Antiviral compounds” (Hoffmann-La Roche Inc., priority 2012, dated 2016).

What follows are compounds tested on HCV GT1b replicon (assay: HCV GT1b replicon luciferase reporter assay (2209-23 cells)). Conditions: Hepatitis C virus, genotype 1a / genotype 1b; 2209-23 cells (Huh-7 with GT-1b Con1 subgenomic replicon), Renilla luciferase read 72 hours after compound addition; read-out: GT-1a - EC50 (nM) HCV, GT1b, IC50 (µM).
Format: cell-based
Description: Determination of compounds HCV GT1b inhibitory replicon activity using the replicon luciferase reporter assay
The 2209-23 cell line was developed at Roche by stable transfection of the hepatoma cell line Huh-7 with a GT-1b Con1 subgenomic bicistronic replicon as previously described. Subgenomic replicon cell line was established in cured Huh7 cells, obtained from R. Bartenschlager (J Virol. 2003 March; 77 (5):3007-19) The GT-1a H77 subgenomic replicon vector pRLuc H77 1b 75 S/I, was created by replacing the nonstructural region of the GT-1b Con1 subgenomic replicon by the one of the H77 strain, except for the first 75 amino acids of the NS3 protein that are from GT-1b Conl strain. (J. Virol. 2001 77:5352-59) The GT-1a pRLuc H77 1b 75 S/I subgenomic replicon cell line was established in cured Huh7 cells, obtained from R. Bartenschlager. (J Virol. 2003 March; 77 (5):3007-19)
All the subgenomic replicon cell lines were cultured in Dulbecco's Modified Eagle Medium (DMEM-Glutamax™-I; Invitrogen Cat #10569-010). The medium was supplemented with 10% Fetal Bovine Serum (Invitrogen Cat #10082-147), 1% penicillin/streptomycin (Mediatech Cat #30-002-CI) and 500 μg/ml of G418 (Mediatech Cat #30-234-CI). Cells were maintained at 37° C. in a humidified 5% CO2 atmosphere.
2209-23 cells were plated at a cell density of 5000 cells per well in 96 well plates (Becton Dickinson, Cat #35 3296). Cells were plated in 90 μl of Dulbecco's Modified Eagle Medium (DMEM-Glutamax™-I), (Invitrogen Cat #10569-010) medium was supplemented with 5% Fetal Bovine Serum (Invitrogen Cat #10082-147), 1% penicillin/streptomycin (Mediatech Cat #30-002-CI). The pRluc H77 1b 75 SA cells were plated in 96-well plate at 3000 cells/well in DMEM-Glutamax™-I containing 5% FBS and 1% penicillin/streptomycin in 90 μl final volume. Cells were allowed to equilibrate for 24 hours at 37° C. and 5% CO2 at which time compounds were added. Compounds (or medium as a control) were added 24 hours post-plating in 3 fold dilutions at a final DMSO concentration of 1% in 10 μl volume. Renilla luciferase reporter signal was read 72 hours after addition of compounds using the Renilla Luciferase Assay System (Promega, cat #E2820). EC50 values were defined as the compound concentration at which a 50% reduction in the levels of renilla luciferase reporter was observed as compared to control samples in the absence of compound and was determined by non-linear fitting of compound dose-response data. The EC50 was approximated if maximum percentage inhibition was less than 90% and more than 70%.
Work on COC(=O)[C@H]1C[C@H](NC(=O)c2ccc3ccccc3c2O)CN1CC1CCCCC1 [Compound I-20, (2R,4S)-1-Cyclohexylmethyl-4-[(1-hydroxy-naphthalene-2-carbonyl)-amino]-pyrrolidine-2-carboxylic acid methyl ester] yielded an IC50 of 233 nM.
COC(=O)[C@@H]1C[C@H](NC(=O)c2ccc3ccccc3c2O)CN1CC1CCCCC1 [Compound I-10, (2S,4S)-1-Cyclohexylmethyl-4-[(1-hydroxy-naphthalene-2-carbonyl)-amino]-pyrrolidine-2-carboxylic acid methyl ester] showed an IC50 of 120 nM.
In the case of O=C(N[C@H]1C[C@@H](c2ncco2)N(CC2CCCCC2)C1)c1ccc2ccccc2c1O [Compound I-9, 1-Hydroxy-naphthalene-2-carboxylic acid ((3S,5S)-1-cyclohexylmethyl-5-oxazol-2-yl-pyrrolidin-3-yl)-amide], the IC50 is reported as 114 nM.
Compound NC(=O)[C@@H]1C[C@H](NC(=O)c2ccc3ccccc3c2O)CN1CC1CCCCC1 [Compound I-25, (2S,4S)-1-Cyclohexylmethyl-4-[(1-hydroxy-naphthalene-2-carbonyl)-amino]-pyrrolidine-2-carboxylic acid amide] has an IC50 of 509 nM.
CCOC(=O)[C@@H]1C[C@H](NC(=O)c2ccc3cccnc3c2O)CN1CC1CCCCC1 [Compound I-24, (2S,4S)-1-Cyclohexylmethyl-4-[(8-hydroxy-quinoline-7-carbonyl)-amino]-pyrrolidine-2-carboxylic acid ethyl ester] gave an IC50 of 367 nM.
CCOC(=O)[C@@H]1C[C@H](NC(=O)c2ccc3ccccc3c2O)CN1C(=O)C1CCCCC1 [Compound I-14, (2S,4S)-1-Cyclohexanecarbonyl-4-[(1-hydroxy-naphthalene-2-carbonyl)-amino]-pyrrolidine-2-carboxylic acid ethyl ester] gave an IC50 of 184 nM.
CCOC(=O)[C@@H]1C[C@H](NC(=O)c2ccc3ccccc3c2O)CN1CC1CCC1 [Compound I-17, (2S,4S)-1-Cyclobutylmethyl-4-[(1-hydroxy-naphthalene-2-carbonyl)-amino]-pyrrolidine-2-carboxylic acid ethyl ester] gave an IC50 of 219 nM.
Compound COC(=O)[C@@H]1C[C@H](NC(=O)c2ccc3ccccc3c2O)CCN1CC1CCCCC1 [Compound I-6, (2S,4R)-1-Cyclohexylmethyl-4-[(1-hydroxy-naphthalene-2-carbonyl)-amino]-piperidine-2-carboxylic acid methyl ester] has an IC50 of 55 nM.
Compound CCOC(=O)[C@@H]1C[C@H](NC(=O)c2ccc3ccccc3c2O)CN1CC1CCCCC1 [Compound I-4, (2S,4S)-1-Cyclohexylmethyl-4-[(1-hydroxy-naphthalene-2-carbonyl)-amino]-pyrrolidine-2-carboxylic acid ethyl ester] has an IC50 of 29 nM.
O=C(N[C@H]1C[C@@H](c2nc3ccccc3o2)N(CC2CCCCC2)C1)c1ccc2ccccc2c1O [Compound I-5, 1-Hydroxy-naphthalene-2-carboxylic acid ((3S,5S)-5-benzooxazol-2-yl-1-cyclohexylmethyl-pyrrolidin-3-yl)-amide] gave an IC50 of 52 nM.
In the case of COC(=O)[C@@H]1C[C@H](NC(=O)c2ccc3ccccc3c2N)CN1CC1CCCCC1 [Compound I-23, (2S,4S)-4-[(1-Amino-naphthalene-2-carbonyl)-amino]-1-cyclohexylmethyl-pyrrolidine-2-carboxylic acid methyl ester], the IC50 is reported as 336 nM.
COC(=O)[C@@H]1C[C@H](NC(=O)c2ccc3ccccc3c2O)CN1CCC(C)(C)C [Compound I-2, (2S,4S)-1-(3,3-Dimethyl-butyl)-4-[(1-hydroxy-naphthalene-2-carbonyl)-amino]-pyrrolidine-2-carboxylic acid methyl ester] showed an IC50 of 79 nM.
CCNC(=O)[C@@H]1C[C@H](NC(=O)c2ccc3ccccc3c2O)CCN1CC1CCCCC1 [Compound I-19, (2S,4R)-1-Cyclohexylmethyl-4-[(1-hydroxy-naphthalene-2-carbonyl)-amino]-piperidine-2-carboxylic acid ethylamide] showed an IC50 of 223 nM.
COC(=O)[C@@H]1C[C@@H](NC(=O)c2ccc3ccccc3c2O)CN1CC1CCCCC1 [Compound I-28, (2S,4R)-1-Cyclohexylmethyl-4-[(1-hydroxy-naphthalene-2-carbonyl)-amino]-pyrrolidine-2-carboxylic acid methyl ester] showed an IC50 of 793 nM.
Compound COC(=O)[C@]1(C)C[C@H](NC(=O)c2ccc3ccccc3c2O)CN1CC1CCCCC1 [Compound I-21, (2S,4S)-1-Cyclohexylmethyl-4-[(1-hydroxy-naphthalene-2-carbonyl)-amino]-2-methyl-pyrrolidine-2-carboxylic acid methyl ester] has an IC50 of 247 nM.
With CCOC(=O)[C@@H]1C[C@@H](NC(=O)c2ccc3ccccc3c2O)CN1Cc1ccccc1 [Compound I-27, (2S,4R)-1-Benzyl-4-[(1-hydroxy-naphthalene-2-carbonyl)-amino]-pyrrolidine-2-carboxylic acid ethyl ester] the IC50 was 659 nM.
Work on CCOC(=O)[C@@H]1C[C@H](NC(=O)c2ccc3ccccc3c2O)CCN1CC1CCCCC1 [Compound I-3, (2S,4R)-1-Cyclohexylmethyl-4-[(1-hydroxy-naphthalene-2-carbonyl)-amino]-piperidine-2-carboxylic acid ethyl ester] yielded an IC50 of 51 nM.
For CCCNC(=O)[C@@H]1C[C@H](NC(=O)c2ccc3ccccc3c2O)CN1CC1CCCCC1 [Compound I-16, (2S,4S)-1-Cyclohexylmethyl-4-[(1-hydroxy-naphthalene-2-carbonyl)-amino]-pyrrolidine-2-carboxylic acid propylamide], the IC50 was 205 nM.
CCOC(=O)[C@@H]1C[C@H](NC(=O)c2ccc3ccccc3c2O)CN1CC(C)C [Compound I-22, (2S,4S)-4-[(1-Hydroxy-naphthalene-2-carbonyl)-amino]-1-isobutyl-pyrrolidine-2-carboxylic acid ethyl ester] showed an IC50 of 299 nM.
With CC(C)NC(=O)[C@@H]1C[C@H](NC(=O)c2ccc3ccccc3c2O)CN1CC1CCCCC1 [Compound I-15, (2S,4S)-1-Cyclohexylmethyl-4-[(1-hydroxy-naphthalene-2-carbonyl)-amino]-pyrrolidine-2-carboxylic acid isopropylamide] the IC50 was 187 nM.
O=C(N[C@H]1C[C@@H](C(=O)N2CCC2)N(CC2CCCCC2)C1)c1ccc2ccccc2c1O [Compound I-29, 1-Hydroxy-naphthalene-2-carboxylic acid [(3S,5S)-5-(azetidine-1-carbonyl)-1-cyclohexylmethyl-pyrrolidin-3-yl]-amide] was tested, and the IC50 was 826 nM.
Work on CC(C)(C)OC(=O)[C@@H]1C[C@H](NC(=O)c2ccc3ccccc3c2O)CN1CC1CCCCC1 [Compound I-1, (2S,4S)-1-Cyclohexylmethyl-4-[(1-hydroxy-naphthalene-2-carbonyl)-amino]-pyrrolidine-2-carboxylic acid tert-butyl ester] yielded an IC50 of 47 nM.
With O=C(N[C@H]1C[C@@H](c2ncc(-c3ccccc3)o2)N(CC2CCCCC2)C1)c1ccc2ccccc2c1O [Compound I-8, 1-Hydroxy-naphthalene-2-carboxylic acid [(3S,5S)-1-cyclohexylmethyl-5-(5-phenyl-oxazol-2-yl)-pyrrolidin-3-yl]-amide] the IC50 was 86 nM.
With COC(=O)[C@@H]1C[C@H](NC(=O)c2ccc3ccccc3c2O)CN1Cc1ccccc1 [Compound I-11, (2S,4S)-1-Benzyl-4-[(1-hydroxy-naphthalene-2-carbonyl)-amino]-pyrrolidine-2-carboxylic acid methyl ester] the IC50 was 121 nM.
Compound CCNC(=O)[C@@H]1C[C@H](NC(=O)c2ccc3ccccc3c2O)CN1CC1CCCCC1 [Compound I-18, (2S,4S)-1-Cyclohexylmethyl-4-[(1-hydroxy-naphthalene-2-carbonyl)-amino]-pyrrolidine-2-carboxylic acid ethylamide] has an IC50 of 221 nM.
CCOC(=O)[C@@H]1C[C@H](NC(=O)c2ccc3ccccc3c2O)CN1CC1CCCC1 [Compound I-12, (2S,4S)-1-Cyclopentylmethyl-4-[(1-hydroxy-naphthalene-2-carbonyl)-amino]-pyrrolidine-2-carboxylic acid ethyl ester] gave an IC50 of 129 nM.
Cc1cnc([C@@H]2C[C@H](NC(=O)c3ccc4ccccc4c3O)CN2CC2CCCCC2)o1 [Compound I-7, 1-Hydroxy-naphthalene-2-carboxylic acid [(3S,5S)-1-cyclohexylmethyl-5-(5-methyl-oxazol-2-yl)-pyrrolidin-3-yl]-amide] showed an IC50 of 70 nM.
